Test results published in a melting point compilation (Tetko et al.; mined from patent text by program, amines drawn as free bases though some values may be those of a salt).

Structure (SMILES)	melting point
CSc1ccc(N2CCCN(/C(C)=C(/C#N)C(=S)/N=C/N(C)C)CC2)cc1	133 to 136 °C
C[C@H](O)c1ccccc1S(=O)(=O)c1ccc(/C=C/c2ccc(F)cc2)cc1	75 °C
CC(C)c1c(C(=O)Nc2ccccc2)c(-c2ccccc2)c(-c2ccc(F)cc2)n1CC[C@H]1C[C@H](O)CC(=O)O1 (relative stereo)	90 to 97 °C
CCOc1cc2ncnc(N3CCN(C(=O)Nc4ccc([N+](=O)[O-])cc4)CC3)c2cc1OCC	120 to 121 °C
Cc1nnc2n1-c1ccccc1C(c1ccc(Cl)cc1)=NN2Cc1ccc(N)cc1	234 to 237 °C
Clc1ccc(-c2ccco2)nn1	103 to 104 °C
CC1(C)CCC(C)(C)c2cc(SCc3ccc(C(=O)O)cc3)ccc21	169 to 170 °C
O=C(c1ccc(-n2ccnc2)cc1)N1CCN(S(=O)(=O)c2cc3cc(Cl)ccc3o2)CC1	175 to 177 °C
CNC(=O)c1cccc(NC(=O)Cc2ccc3c(c2)OCO3)c1	174 to 175 °C
CNC(=O)c1c(I)c(NC(=O)COC)c(I)c(C(=O)NC(CO)C(=O)O)c1I (racemic)	247 to 248 °C
Cc1cccc(NC(=O)NCC(=O)N(CC(=O)OC(C)(C)C)c2cccc(C(F)(F)F)c2)c1	140 °C
NS(=O)(=O)OCCOc1ccc(Cl)cc1	117 to 119 °C
CCC(=O)N(CC)c1cccc(-c2ccc3nnc(NC)n3n2)c1	172 to 173 °C
CC1(C)C(=O)N(c2ccc([N+](=O)[O-])c(C(F)(F)F)c2)C(=O)N1CCCN1C(=O)N(c2ccc([N+](=O)[O-])c(C(F)(F)F)c2)C(=O)C1(C)C	164 to 165 °C
O=C1c2ccccc2N(c2ccc(F)cc2)C2=NCCN12	278 to 280 °C
NC(=O)c1nnn(Cc2cc(Cl)c(Sc3ccc(Cl)cc3)c(Cl)c2)c1N	180 to 182 °C

Structure (SMILES)	melting point
CCc1c(-c2ccncc2)[nH]c2ccc(C3=NNC(=O)CC3)cc12	> 300 °C
CC(=O)SCC(Cc1ccccc1)C(=O)Nc1cccc(C(=O)O)c1 (stereo not drawn)	169 to 170 °C
Cc1ccc(S(=O)(=O)OC[C@H]2COc3ccc([N+](=O)[O-])c(CC(=O)O)c3O2)cc1	158 to 159 °C
CSC1=NCCc2nc(C)nn21	75.5 to 76.5 °C
Cc1nc2c(s1)-c1nc(NCc3ccccc3)ncc1CC2	152 to 154 °C
CC(C)Oc1ccc(CCCOc2nn(Cc3ccccc3)cc2CC(=O)O)c(OCc2ccc(Cl)cc2Cl)c1	103 to 104 °C
COc1cc2c(cc1Nc1ncc(Cl)c(N[C@@H]3CCCC[C@H]3NS(C)(=O)=O)n1)CCN(CC(F)(F)F)CC2	103 to 110 °C
Nc1nc2c(Cc3ccccn3)c[nH]c2c(=O)[nH]1	280 to 282 °C
OCC1CCc2c([nH]c3ccc(Cl)cc23)C1 (stereo not drawn)	168 to 169 °C
CC1Cc2cc3c(cc2C(c2ccc(N)cc2)=NN1C(=O)Nc1ccccc1)OCO3 (stereo not drawn)	118 to 120 °C
O=[N+]([O-])c1ccc(-c2nnn(Cc3ccccc3)n2)cc1	139 to 141 °C
CC(O)Cc1c2ccccc2cc2ccccc12 (stereo not drawn)	105 to 107 °C
CCOC(=O)C(NC(=O)Nc1ccccc1Cl)(c1nc(OC)cc(OC)n1)C(C)C (stereo not drawn)	84 to 87 °C
CC1(CCN)OCCc2c1[nH]c1ccccc21 (stereo not drawn)	80 to 84 °C
COCn1ccnc1C(O)(c1ccccc1)c1ccc(Cl)cc1Cl (stereo not drawn)	161 to 162 °C
O=C(c1ccc(OS(=O)(=O)C(F)(F)F)cc1OS(=O)(=O)C(F)(F)F)c1ccc(OS(=O)(=O)C(F)(F)F)cc1OS(=O)(=O)C(F)(F)F	94 to 96 °C

Second part, the molecule after the results:

melting point	Structure (SMILES)
224 to 226 °C	COc1cc2c(c(Br)c1OC(C)=O)Sc1cc(F)ccc1N2
101 to 103 °C	CN(C)c1cccc(OCC(=O)c2cccc(Cl)c2)c1
> 260 °C	Cc1nc2ccc(C(=O)O)nc2n1Cc1ccc(Cl)cc1Cl
113 to 140 °C	COc1ccc(C(=O)c2ccc(Cl)c(Cl)c2)c(Cl)c1Cl
226 to 228 °C	COc1cc2c(cc1C(F)(F)F)N(C(=O)Nc1cccc(-c3cncnc3)c1)CC2
145 to 146 °C	CNC(=O)NN(CC(=O)OC)c1cccc(OC)c1
118 to 121 °C	O=c1cc2c(nn1-c1ccc(Cl)cc1)-c1cc(CO)sc1CCC2
192 to 194 °C	COc1ccc(-c2cncc(C#N)c2Oc2ccc3[nH]ccc3c2)cc1OC
217 to 219 °C	O=C(O)CCOc1cccc2ncccc12
154 to 155 °C	COc1ccc(CCc2nnc(-c3ccc4[nH]nnc4c3)o2)cc1C(F)(F)F
127 to 130 °C	CCOC(=O)C1=C(C)N(C(C)=O)C(c2csc(C)n2)=NC1c1cccc(F)c1 (stereo not drawn)
107 to 108 °C	CCOC(=O)c1[nH]c2c(Cl)ccc(Cl)c2c1C
216 to 218 °C	Cc1ccc(-c2c(O)c(=O)c3ccccc3n2C)cc1
132 °C	COc1ccc(C(=O)c2c(-c3ccccc3)sc3cc(OC)ccc23)cc1
213 to 215 °C	CC(C)COc1ccccc1Nc1ncc(C(=O)O)c(=O)[nH]1
129 to 130 °C	CC(C)C(=O)c1c(-c2ccc(F)cc2)nn2cc(C(F)(F)F)ccc12
